Source: PubChem BioAssay (NCI)
Several values for one entry are separate records, joined by “and”; a condition that tells them apart may be missing. Equal values may be shown once.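 Test compounds were applied to cells in 96-well plates for 48 hours at 5 doses. Abbreviation: GI50, concentration required for 50% inhibition of growth. TGI denotes the concentration required for complete inhibition of growth.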

Columns and labels:
Assay in all cases: NCI-60 cell line screen, 48 h
HOP-62 NSCLC = tested on: HOP-62 NSCLC
HOP-92 NSCLC = tested on: HOP-92 NSCLC
UACC-62 melanoma = tested on: UACC-62 melanoma
SK-MEL-5 melanoma = tested on: SK-MEL-5 melanoma
SR leukemia = tested on: SR leukemia
MDA-MB-435 = tested on: MDA-MB-435
SNB-19 CNS = tested on: SNB-19 CNS
TK-10 renal = tested on: TK-10 renal
UACC-257 melanoma = tested on: UACC-257 melanoma
KM12 colon = tested on: KM12 colon

SMILES | GI50 (HOP-62 NSCLC) [µM] | TGI (HOP-62 NSCLC) | GI50 (HOP-92 NSCLC) [µM] | TGI (HOP-92 NSCLC) | GI50 (UACC-62 melanoma) [µM] | TGI (UACC-62 melanoma) | GI50 (SK-MEL-5 melanoma) | TGI (SK-MEL-5 melanoma) | GI50 (SR leukemia) | TGI (SR leukemia) | GI50 (MDA-MB-435) [µM] | TGI (MDA-MB-435) | GI50 (SNB-19 CNS) | TGI (SNB-19 CNS) | GI50 (TK-10 renal) [µM] | TGI (TK-10 renal) | GI50 (UACC-257 melanoma) | TGI (UACC-257 melanoma) | GI50 (KM12 colon) | TGI (KM12 colon)
O=C1/C(=C/c2ccccc2)CCC/C1=C\c1ccccc1 | 7.64 | 13.6 µM and 40 µM and 41.1 µM | 6.48 | 13 µM and 35.2 µM and 37.3 µM | 6.34 | 11.5 µM and 28.4 µM and 29.9 µM | 6.75 µM and 6.37 µM | 12 µM and 26.4 µM and 19.6 µM | 10.8 µM and 3.16 µM | 36.5 µM and > 64.3 µM and 7.58 µM | 2.71 | 11 µM and 14.1 µM | 6 µM and 12.2 µM | 10.9 µM and 29 µM and 31 µM | 6.12 | 11.9 µM and 33.2 µM and 40 µM | 6.3 µM and 13.1 µM | 11.7 µM and 39.8 µM and 33.3 µM | 3.54 µM and 2.11 µM | 7.81 µM and 5.54 µM and 4.26 µM
CCOC(=O)c1c(C)n2c(=O)cc(C)c3c(OC(C)=O)c(OC(C)=O)cc1c32 | 7.05 | 31.5 µM | 4.78 | 41.5 µM | 4.22 | 14.4 µM | 3.78 µM | 13.4 µM | 2.78 µM | > 32.2 µM | 5.76 | > 53 µM | 5.71 µM | > 65 µM | 15 | > 100 µM | 7.64 µM | 25.3 µM | 5.54 µM | 29.4 µM
CC1(C)CC2C=C(C=O)C3(C=O)CC3(C)C2C1 (stereo unspecified) |  | 8.86 µM |  | 3.97 µM |  | 17.1 µM |  | 3.51 µM |  | 2.45 µM |  | 3.46 µM |  | 25.6 µM |  | 5.62 µM |  | 7.11 µM |  | 13.5 µM
C=C1CCC2C3(C)COC(c4ccc(SC)cc4)OC3CCC2(C)C1C/C=C1/C(=O)OCC1O (stereo unspecified) | 17.3 | 32.8 µM | 5.19 | 17.1 µM | 5.45 | 20.4 µM | 6.85 µM | 19.4 µM | 2.53 µM | 8.04 µM | 3.69 | 16.4 µM | 16.8 µM | 30.6 µM | 14 | 29.9 µM | 4.17 µM | 17.4 µM | 5.21 µM | 17.6 µM
COC(=O)c1ccc([N+](=O)[O-])c(O)c1 |  | > 100 µM |  | > 100 µM |  | > 100 µM |  | > 100 µM |  | > 100 µM |  | > 100 µM |  | > 100 µM |  | > 100 µM |  | > 100 µM |  | > 100 µM
COc1ccc(/C=C/c2cc(N3CCOCC3)c3cc(F)c(F)cc3n2)cc1OC | 0.667 | 7.25 µM | 1.36 | 6.53 µM | 0.436 | 2.24 µM | 0.52 µM | 2.37 µM | 0.431 µM | 6.78 µM | 1.54 | 12.8 µM | 1.11 µM | 12.4 µM | 1.14 | 10.2 µM | 2.39 µM | 9.89 µM | 1.24 µM | 13.7 µM
Oc1cc(O)c2c(=S)cc(-c3ccc(Cl)cc3)oc2c1 | 2.03 | 11.2 µM | 1.62 | 5.11 µM | 3.01 | 14.2 µM | 1.89 µM | 5.04 µM | 3.52 µM | 29.6 µM | 3.41 | 14 µM | 3.68 µM | 16.3 µM | 4.08 | 19.1 µM | 2.75 µM | 7.96 µM | 2.08 µM | 11.5 µM
N#Cc1c(NC(=O)CN2CCOCC2)sc2c1CCCC2 | > 25 | > 25 µM | > 25 | > 25 µM | > 25 | > 25 µM | > 25 µM | > 25 µM | > 25 µM | > 25 µM | > 25 | > 25 µM | > 25 µM | > 25 µM | > 25 | > 25 µM | > 25 µM | > 25 µM | > 25 µM | > 25 µM
Cc1nc(/N=C(\N)NC(=O)Nc2ccccc2Cl)sc1C | 0.505 | 2.84 µM | 1.54 | 15.8 µM | 0.488 | > 100 µM | 0.508 µM | 7.39 µM | 0.173 µM | 35.5 µM | 0.0868 | 0.466 µM | 0.462 µM | 12.4 µM | 1.84 | 6.41 µM | 1.44 µM | > 100 µM | 0.405 µM | > 100 µM
COc1cc([C@@H]2c3cc4c(cc3[C@H](O)[C@H]3COC(=O)[C@H]23)OCO4)cc(OC)c1OC | < 0.005 | > 100 µM and 50 µM and > 75 µM | < 0.01 |  | < 0.01 | > 100 µM and 34.7 µM |  | 0.0477 µM | < 0.01 µM | < 0.005 µM | < 0.01 | < 0.005 µM | < 0.01 µM | > 100 µM and 50 µM | < 0.005 | > 100 µM and 50 µM |  | > 100 µM and 50 µM | < 0.01 µM | 
